ChEMBL document CHEMBL1201862, “PubChem BioAssay data set” (2004)
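In this assay, cells in 96-well plates receive the compound at five concentrations for 48 hours. Endpoints are linearly interpolated between the surrounding concentrations. GI50: concentration for 50% inhibition of growth.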 Active and inactive are the calls of the source. Rule as the data show it: active = GI50 up to about 1.1 µM and inactive = higher.

Experiments:
Experiment in all cases: growth of human tumour cells (NCI), 48 h
786-0 = system: 786-0
Hs-578T = system: Hs-578T
HCT-116 = system: HCT-116
UACC-62 = system: UACC-62
CAKI-1 = system: CAKI-1
A549 = system: A549
NCI-H226 = system: NCI-H226
HOP-62 = system: HOP-62
OVCAR-3 = system: OVCAR-3
MDA-MB-231 = system: MDA-MB-231
SF-268 = system: SF-268
MCF7 = system: MCF7
RPMI-8226 = system: RPMI-8226
NCI-H23 = system: NCI-H23
HCC 2998 = system: HCC 2998
SK-MEL-28 = system: SK-MEL-28
LOX IMVI = system: LOX IMVI
SK-OV-3 = system: SK-OV-3
SR = system: SR
Malme-3M = system: Malme-3M

Measured: GI50

CCOC(=O)c1c(N=C(S)Nc2ccccc2)sc2c1CCN(C)C2
inactive: 786-0 > 100 µM | Hs-578T > 100 µM | HCT-116 > 100 µM | UACC-62 > 100 µM | CAKI-1 > 100 µM | A549 > 100 µM | NCI-H226 > 100 µM | HOP-62 > 100 µM | OVCAR-3 > 100 µM | MDA-MB-231 > 100 µM | SF-268 > 100 µM | MCF7 > 100 µM | RPMI-8226 > 100 µM | NCI-H23 > 100 µM

CNC(=O)OCC1=C(COC(=O)NC)CN(c2ccccc2)C1
inactive: 786-0 > 100 µM | HCC 2998 > 100 µM | Hs-578T > 100 µM | SK-MEL-28 > 100 µM | HCT-116 > 100 µM | UACC-62 > 100 µM | A549 > 100 µM | NCI-H226 > 100 µM | LOX IMVI > 100 µM | SK-OV-3 > 100 µM | HOP-62 > 100 µM | SR > 100 µM | OVCAR-3 > 100 µM | Malme-3M > 100 µM | MDA-MB-231 > 100 µM | SF-268 > 100 µM | MCF7 > 100 µM | RPMI-8226 > 100 µM | NCI-H23 > 100 µM

OCCCC(O)(c1ccccc1)c1ccccc1
inactive: 786-0 > 100 µM | HCC 2998 > 100 µM | Hs-578T > 100 µM | SK-MEL-28 > 100 µM | UACC-62 > 100 µM | A549 > 100 µM | NCI-H226 > 100 µM | LOX IMVI > 100 µM | SK-OV-3 > 100 µM | HOP-62 > 100 µM | SR > 100 µM | OVCAR-3 > 100 µM | Malme-3M > 100 µM | SF-268 > 100 µM | MCF7 > 100 µM | RPMI-8226 > 100 µM | NCI-H23 > 100 µM

CCOC(=O)c1c(C)n(-c2ccc(C)cc2)c(=O)c2ccccc2c(=O)c2c(=O)ccc(=O)c1=2
inactive: 786-0 31 µM | HCC 2998 14.3 µM | Hs-578T 21.3 µM | SK-MEL-28 12.2 µM | HCT-116 17.2 µM | UACC-62 19.6 µM | CAKI-1 14.5 µM | A549 20.2 µM | NCI-H226 18.2 µM | LOX IMVI 14.7 µM | SK-OV-3 27 µM | HOP-62 18.8 µM | OVCAR-3 16.2 µM | Malme-3M 17 µM | MDA-MB-231 16.1 µM | SF-268 19.8 µM | MCF7 18.8 µM | RPMI-8226 4.7 µM | NCI-H23 15.5 µM

COc1cc(/C=C2\C(=O)N(c3cccc(NC(C)=O)c3)C(c3ccccc3)S2(=O)=O)cc(OC)c1OC (stereo not given)
inactive: 786-0 88.5 µM | HCC 2998 > 100 µM | SK-MEL-28 91.2 µM | HCT-116 37.8 µM | UACC-62 80.9 µM | CAKI-1 > 100 µM | A549 > 100 µM | NCI-H226 67.6 µM | LOX IMVI 54.2 µM | SK-OV-3 > 100 µM | HOP-62 > 100 µM | SR 24.9 µM | OVCAR-3 56 µM | Malme-3M 93.5 µM | MDA-MB-231 > 100 µM | MCF7 31 µM | RPMI-8226 40.7 µM | NCI-H23 79.4 µM

CCOC(=O)c1c(N)sc2c1C(C(=O)OCC)CCC2 (stereo not given)
inactive: 786-0 > 100 µM | HCC 2998 > 100 µM | Hs-578T > 100 µM | SK-MEL-28 > 100 µM | HCT-116 79.8 µM | UACC-62 > 100 µM | A549 > 100 µM | NCI-H226 > 100 µM | HOP-62 > 100 µM | SR 66.7 µM | Malme-3M > 100 µM | MDA-MB-231 > 100 µM | MCF7 > 100 µM | RPMI-8226 > 100 µM | NCI-H23 > 100 µM

CC(C)(C)OC(=O)NCCC1SC2C=CC1C2 (stereo not given)
inactive: 786-0 > 100 µM | HCC 2998 > 100 µM | Hs-578T > 100 µM | SK-MEL-28 > 100 µM | HCT-116 > 100 µM | UACC-62 > 100 µM | CAKI-1 > 100 µM | A549 > 100 µM | NCI-H226 > 100 µM | LOX IMVI > 100 µM | SK-OV-3 > 100 µM | HOP-62 > 100 µM | OVCAR-3 > 100 µM | Malme-3M > 100 µM | MDA-MB-231 > 100 µM | SF-268 > 100 µM | MCF7 > 100 µM | RPMI-8226 > 100 µM | NCI-H23 > 100 µM

COC(=O)/C=C\C(C#N)(C#N)/N=C/c1cccs1
inactive: 786-0 14.2 µM | HCC 2998 18.9 µM | Hs-578T 24.8 µM | SK-MEL-28 8.83 µM | HCT-116 8.69 µM | UACC-62 11.6 µM | CAKI-1 1.88 µM | A549 22.6 µM | NCI-H226 7.53 µM | LOX IMVI 2.34 µM | SK-OV-3 19 µM | HOP-62 17.6 µM | OVCAR-3 11.1 µM | Malme-3M 2.65 µM | MDA-MB-231 1.46 µM | SF-268 15 µM | MCF7 2.01 µM | RPMI-8226 2.11 µM | NCI-H23 9.14 µM
